Activity calls are given as the source filed them. The rule behind the calls is not given here.
Experiments:
[1] = target: T1, Serine/threonine-protein kinase ULK2 (Homo sapiens, UniProt Q8IYT8); experiment: Inhibition of recombinant human ULK2 (1 to 478 residues) expressed in Sf9 cells using myelin basic protein as substrate by ADP-glo assay
T1 sequence (Q8IYT8 whole entry): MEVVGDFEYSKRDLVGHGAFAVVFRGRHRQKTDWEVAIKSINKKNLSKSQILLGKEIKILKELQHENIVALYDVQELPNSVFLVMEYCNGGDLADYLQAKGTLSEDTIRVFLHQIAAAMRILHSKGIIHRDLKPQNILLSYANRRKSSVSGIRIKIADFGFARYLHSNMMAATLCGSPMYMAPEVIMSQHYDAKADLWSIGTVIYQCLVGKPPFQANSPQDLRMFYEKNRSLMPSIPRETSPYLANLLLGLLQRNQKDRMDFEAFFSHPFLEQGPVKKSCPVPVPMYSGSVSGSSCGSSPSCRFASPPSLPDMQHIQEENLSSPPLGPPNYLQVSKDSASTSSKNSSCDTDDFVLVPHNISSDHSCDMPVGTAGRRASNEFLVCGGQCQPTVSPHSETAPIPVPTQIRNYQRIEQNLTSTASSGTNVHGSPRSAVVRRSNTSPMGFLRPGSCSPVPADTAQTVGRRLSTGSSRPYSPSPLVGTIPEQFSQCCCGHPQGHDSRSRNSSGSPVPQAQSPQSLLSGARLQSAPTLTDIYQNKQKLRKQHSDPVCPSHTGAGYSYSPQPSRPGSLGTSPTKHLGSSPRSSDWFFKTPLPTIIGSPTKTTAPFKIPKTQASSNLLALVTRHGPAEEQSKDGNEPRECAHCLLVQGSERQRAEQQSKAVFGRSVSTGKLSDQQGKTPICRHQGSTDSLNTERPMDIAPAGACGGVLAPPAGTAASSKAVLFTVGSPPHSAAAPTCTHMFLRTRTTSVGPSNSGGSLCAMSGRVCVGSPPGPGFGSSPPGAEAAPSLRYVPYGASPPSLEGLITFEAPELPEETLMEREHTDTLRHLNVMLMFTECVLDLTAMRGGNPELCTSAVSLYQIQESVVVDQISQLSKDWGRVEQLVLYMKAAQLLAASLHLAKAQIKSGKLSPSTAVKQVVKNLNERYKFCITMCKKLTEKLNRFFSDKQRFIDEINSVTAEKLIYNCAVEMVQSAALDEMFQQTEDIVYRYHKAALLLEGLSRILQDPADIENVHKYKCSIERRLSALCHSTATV

MDA-MB-468 [2] = experiment: Reduction in autophagosome accumulation in human MDA-MB-468 cells at 10 uM by transmission electron microscopic analysis; format: functional, cell-based
[3] = Half life in C57BL/6J mouse at 30 mg/kg, po measured upto 24 hrs by LC-MS/MS analysis; format: ADME, organism-based; details: in vivo
MDA-MB-468 [4] = experiment: Synergistic cytotoxicity against human MDA-MB-468 cells at 0.19 to 1.7 uM in presence of PARP inhibitor niraparib measured after 72 hrs by Celltiter-Glo assay; format: functional, cell-based; details: dose 0.19-1.7 µM
[5] = Cmax in C57BL/6J mouse at 30 mg/kg, po measured upto 24 hrs by LC-MS/MS analysis; format: ADME, organism-based; set-up: route oral, dose 30 mg/kg, time <=24; details: in vivo
[6] = target: T2, Serine/threonine-protein kinase ULK1 (Homo sapiens) (UniProt O75385); experiment: Inhibition of Myc-tagged ULK1 (unknown origin) expressed in HEK293T cells cotransfected with wild-type Flag tagged Vps34 assessed as decrease in pVPS34 Ser249 at 10 uM measured after 1 hr by Western blot analysis relative to control; format: cell-based
T2 sequence (whole entry): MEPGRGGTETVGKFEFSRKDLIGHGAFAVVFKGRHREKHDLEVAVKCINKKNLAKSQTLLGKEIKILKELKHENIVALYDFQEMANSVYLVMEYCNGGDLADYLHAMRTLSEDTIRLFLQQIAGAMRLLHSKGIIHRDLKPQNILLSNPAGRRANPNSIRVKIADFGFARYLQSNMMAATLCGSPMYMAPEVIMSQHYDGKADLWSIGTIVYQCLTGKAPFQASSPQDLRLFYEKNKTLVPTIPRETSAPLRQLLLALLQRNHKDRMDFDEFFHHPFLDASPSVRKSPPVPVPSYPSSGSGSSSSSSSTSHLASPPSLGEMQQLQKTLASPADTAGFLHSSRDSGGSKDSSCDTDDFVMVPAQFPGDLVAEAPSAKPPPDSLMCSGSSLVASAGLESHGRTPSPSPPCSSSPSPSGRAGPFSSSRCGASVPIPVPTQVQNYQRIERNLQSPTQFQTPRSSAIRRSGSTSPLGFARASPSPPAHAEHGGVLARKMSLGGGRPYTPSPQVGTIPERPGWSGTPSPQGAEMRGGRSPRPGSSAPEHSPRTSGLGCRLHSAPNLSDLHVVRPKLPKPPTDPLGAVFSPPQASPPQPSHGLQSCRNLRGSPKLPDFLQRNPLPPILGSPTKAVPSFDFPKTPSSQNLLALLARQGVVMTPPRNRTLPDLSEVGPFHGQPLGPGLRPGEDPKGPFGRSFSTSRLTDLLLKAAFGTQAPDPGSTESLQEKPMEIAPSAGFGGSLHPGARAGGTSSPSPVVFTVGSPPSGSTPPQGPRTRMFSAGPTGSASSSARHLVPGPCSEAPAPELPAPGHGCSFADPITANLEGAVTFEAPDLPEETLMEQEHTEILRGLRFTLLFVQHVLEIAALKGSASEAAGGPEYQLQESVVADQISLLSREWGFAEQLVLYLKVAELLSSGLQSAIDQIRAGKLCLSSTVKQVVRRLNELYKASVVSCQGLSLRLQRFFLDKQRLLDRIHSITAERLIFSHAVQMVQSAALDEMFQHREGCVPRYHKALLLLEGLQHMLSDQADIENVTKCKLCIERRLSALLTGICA

[7] = Apparent permeability of the compound across apical side to basolateral side in human Caco2 cells; format: ADME, cell-based; details: Caco-2
MDA-MB-468 [8] = experiment: Synergistic cytotoxicity against human MDA-MB-468 cells a t0.021 to 15 uM in presence of PARP inhibitor olaparib measured after 72 hrs by Celltiter-Glo assay; format: functional, cell-based; details: dose 0.021-15 µM
MDA-MB-468 [9] = experiment: Induction of apoptosis in human MDA-MB-468 cells assessed as necrotic cells at 10 uM measured after 18 hrs in normal growth media by AnnexinV/7-AAD staining based flow cytometric analysis (reference value: 0.2%); format: functional
MDA-MB-468 [10] = experiment: Induction of apoptosis in human MDA-MB-468 cells assessed as late apoptotic cells at 10 uM measured after 18 hrs in normal growth media by AnnexinV/7-AAD staining based flow cytometric analysis (reference value: 6.8%); format: functional
[11] = AUC (0 to t) in C57BL/6J mouse at 30 mg/kg, po measured upto 24 hrs by LC-MS/MS analysis; format: ADME, organism-based; set-up: dose 30 mg/kg, time <=24; details: in vivo
[12] = target: T2, Serine/threonine-protein kinase ULK1 (Homo sapiens); experiment: Inhibition of Myc-tagged ULK1 (unknown origin) expressed in HEK293T cells cotransfected with wild-type Flag tagged Beclin-1 assessed as decrease in pBeclin1 Ser15 at 10 uM measured after 1 hr by Western blot analysis relative to control; format: cell-based
MDA-MB-468 [13] = experiment: cells; details: Homo sapiens, MDA-MB-468, 72 h
Description: Cytotoxicity against human MDA-MB-468 cells measured after 72 hrs by Celltiter-Glo assay

COc1ccc(Nc2ncc(C(F)(F)F)c(NC3CC3)n2)cc1OC
IC50 [1]: 476 nM
inhibition (MDA-MB-468 [2]): Active
half-life [3]: 1.7 h
Activity (MDA-MB-468 [4]): Active
Cmax [5]: 990 nM
inhibition [6]: 90%
Papp A→B [7]: > 10 ×10⁻⁶ cm/s
Activity (MDA-MB-468 [8]): Active
Activity (MDA-MB-468 [9]): 0.2%
Activity (MDA-MB-468 [10]): 6.8%
AUC(0-t) at 24 h [11]: 2.3 µM·h
inhibition [12]: 60%
IC50 (MDA-MB-468 [13]): 300 nM

— ChEMBL document CHEMBL4673296 (J Med Chem, 2020)
